Assay: xn = mol fraction of the nth substance listed
Settings: Fluid (supercritical or subcritical phases), Vibrating tube method

CC1=C(/C=C/C(C)=C/C=C/C(C)=C/C=C/C=C(C)/C=C/C=C(C)/C=C/C2=C(C)CCCC2(C)C)C(C)(C)CCC1 [β-carotene] + O=C=O
mass density [kg/m3]
Settings	x1 = 1.5e-06	x1 = 2.2e-06	x1 = 2.9e-06	x1 = 4.3e-06	x1 = 4.8e-06	x1 = 5.5e-06	x1 = 6.5e-06
308.15 K, 10000 kPa	717.5	717.7	717.9	717.6	717.8	718.3	717.8
308.15 K, 15000 kPa	816.3	816.4	816.5	816.4	816.4	816.7	816.4
308.15 K, 20000 kPa	866.3	866.3	866.3	866.4	866.4	866.5	866.4
308.15 K, 30000 kPa	929.1	929.1	929.1	929.1	929.3	929.2	929.1
308.15 K, 40000 kPa	971.8	971.9	971.9	971.9	972	972	971.9
313.15 K, 10000 kPa	636.7	637.3	637.2	637.2	637.7	637.8	637.3
313.15 K, 15000 kPa	781.5	781.6	781.6	781.6	781.8	781.9	781.6
313.15 K, 20000 kPa	840.4	840.4	840.4	840.4	840.6	840.7	840.4
313.15 K, 30000 kPa	909.9	909.9	909.9	909.9	910	910.1	909.9
313.15 K, 40000 kPa	955.7	955.7	955.7	955.7	955.8	955.9	955.7
323.15 K, 10000 kPa	398.3	397.9	398.9	398.2	398.4	398.5	398.2
323.15 K, 15000 kPa	702	701.8	702.1	702	702.1	702.2	702
323.15 K, 20000 kPa	785	784.9	785.1	785	785.2	785.3	785
323.15 K, 30000 kPa	870.5	870.5	870.5	870.5	870.6	870.7	870.5
323.15 K, 40000 kPa	922.9	923	923	923	923	923.1	923
333.15 K, 10000 kPa	296.5	297.2	296.7	296.6	296.9	297	296.6
333.15 K, 15000 kPa	607.3	607.7	607.7	607.4	607.7	607.8	607.4
333.15 K, 20000 kPa	724.5	724.7	724.7	724.7	724.7	725	724.6
333.15 K, 30000 kPa	829.7	829.7	829.7	829.7	829.8	829.9	829.7
333.15 K, 40000 kPa	889.8	889.8	889.9	889.9	890	890	889.9
